Read-outs that look alike come from different tables or passages of the source.
Experiments:
Assay type in all cases: cell-based
[1] = test system: SK-N-DZ; experiment: CellTiterGlo viability, neuroblastoma cell line; details: single agent, 3 days
Experimental: (§1) In addition, all media contained penicillin (100 IU/ml), streptomycin (100 μg/ml) and L-glutamine (2 mM). […] In all cases cells were thawed from frozen stocks, expanded through ≥1 passage using appropriate dilutions, counted and assessed for viability using a CASY cell counter prior to plating 150 ul/well at the densities indicated in Table 6 into 96-well plates. All cell lines were determined to be free of mycoplasma contamination in-house. Stock solutions of compounds were prepared at a concentration of 5 mM in DMSO and stored at −20° C. In order to analyse the activity of the compounds as single agents, cells were seeded and treated with nine 3.16-fold serial dilutions of each compound dispensed individually directly into the cell assay plates. […] Two independent experiments, each one performed in duplicates were performed. […]. Luminescence was quantified on a multipurpose platereader. Single agent IC50s were calculated using standard four-parametric curve fitting. […] Identical experiments were performed to assess potential synergistic interactions between compound combinations. […] All calculations were performed using Chalice TM Bioinformatics Software.

[2] = test system: NBL-S; experiment: CellTiterGlo viability, neuroblastoma cell line; details: single agent, 3 days
Experimental: as §1

[3] = test system: LAN-6; experiment: CellTiterGlo viability, neuroblastoma cell line; details: for Max Inh (Compound 3: Mean of Max Inh) / IC50: LAN-6, single agent, 3 days
Experimental: as §1

[4] = test system: SK-N-SH; experiment: CellTiterGlo viability, neuroblastoma cell line; details: single agent, 2 days
Experimental: as §1

[5] = test system: SIMA; experiment: CellTiterGlo viability, neuroblastoma cell line; details: single agent, 3 days
Experimental: as §1

[6] = test system: Kelly; experiment: CellTiterGlo viability, neuroblastoma cell line; details: single agent, 2 days
Experimental: as §1

[7] = test system: NB1; experiment: CellTiterGlo viability, neuroblastoma cell line; details: single agent, 2 days
Experimental: as §1

[8] = test system: SK-N-AS; experiment: CellTiterGlo viability, neuroblastoma cell line; details: single agent, 3 days
Experimental: as §1

[9] = test system: SK-N-FI; experiment: CellTiterGlo viability, neuroblastoma cell line; details: single agent, 2 days
Experimental: as §1

[10] = test system: SH-SY5Y; experiment: CellTiterGlo viability, neuroblastoma cell line; details: single agent, 2 days
Experimental: as §1

[11] = test system: SK-N-BE; experiment: CellTiterGlo viability, neuroblastoma cell line; details: single agent, 3 days
Experimental: as §1

[12] = test system: TANOUE; experiment: CellTiterGlo viability, B-ALL cell line; details: single agent, 72 h
Experimental: (§2) In addition, all media contained penicillin (100 IU/ml), streptomycin (100 μg/ml) and L-glutamine (2 mM). Cell lines were cultured at 37° C. in a humidified atmosphere containing 5% CO2 and expanded in T-150 flasks. In all cases cells were thawed from frozen stocks, expanded through ≥1 passage using appropriate dilutions, counted and assessed for viability using a CASY cell counter prior to plating 150 ul/well at the densities indicated in Table 9 into 96-well plates. All cell lines were determined to be free of mycoplasma contamination in-house.
(§3) Stock solutions of compounds were prepared at a concentration of 5 mM in DMSO and stored at −20° C. In order to analyse the activity of the compounds as single agents, cells were seeded and treated with nine 2-fold serial dilutions of each compound dispensed individually directly into the cell assay plates. Effects of the compounds on cell viability were assessed after 3 days of incubation at 37° C./5% CO2 by quantification of cellular ATP levels using CellTiterGlo at 75 μL reagent/well. All the conditions were tested in triplicates. Luminescence was quantified on a multipurpose plate reader. Single agent IC50s were calculated using standard four-parametric curve fitting. IC50 is defined as the compound concentration at which the CTG signal is reduced to 50% of that measured for the vehicle (DMSO) control.
(§4) In order to analyse the activity of the compounds in combination, cells were seeded and treated with seven or eight 3.16-fold serial dilutions of each compound dispensed, either individually or in all possible permutations in a checkerboard fashion, directly into the cell assay plates as indicated in FIG. 1. Effects of the single agents as well as their checkerboard combinations on cell viability were assessed after 3 days of incubation at 37° C./5% CO2 by quantification of cellular ATP levels using CellTiterGlo at 75 μL reagent/well. For B-ALL cell lines, two independent experiments, each one performed in duplicates, were performed. For T-ALL cell lines, one experiment performed in triplicate was performed. Luminescence was quantified on a multipurpose plate reader.
(§5) Potential synergistic interactions between compound combinations were assessed using the Excess Inhibition 2D matrix according to the Loewe additivity model and are reported as Synergy Score (Lehar et al, Nat Biotechnol. 2009 July; 27(7): 659-666). All calculations were performed using Chalice TM Bioinformatics Software available in Horizon website. The doubling time indicated in Table 9 is the mean of the doubling time obtained in the different passages (in T-150 flasks) performed from the thawing of the cells to their seeding in the 96-well plates.

[13] = test system: RS4;11; experiment: CellTiterGlo viability, B-ALL cell line; details: single agent, 72 h
Experimental: as §2, §3, §4, §5

[14] = test system: Kasumi-2; experiment: CellTiterGlo viability, B-ALL cell line; details: single agent, 72 h
Experimental: as §2, §3, §4, §5

[15] = test system: BALL-1; experiment: CellTiterGlo viability, B-ALL cell line; details: single agent, 72 h
Experimental: as §2, §3, §4, §5

[16] = test system: TOM-1; experiment: CellTiterGlo viability, B-ALL cell line; details: single agent, 72 h
Experimental: as §2, §3, §4, §5

[17] = test system: SUP-B15; experiment: CellTiterGlo viability, B-ALL cell line; details: single agent, 72 h
Experimental: as §2, §3, §4, §5

[18] = test system: NALM-21; experiment: CellTiterGlo viability, B-ALL cell line; details: single agent, 72 h
Experimental: as §2, §3, §4, §5

[19] = test system: SU-DHL-4; experiment: CellTiterGlo viability, DLBCL cell line; details: single agent, 2 days; for IC50: read-out: Abs IC50
Experimental: (§6) In addition, all media contained penicillin (100 IU/ml), streptomycin (100 μg/ml) and L-glutamine (2 mM). Unless otherwise mentioned, culture media and supplements were from Amimed/Bioconcept (Allschwil, Switzerland).
(§7) Cell lines were cultured at 37° C. in a humidified atmosphere containing 5% CO2 and expanded in T-75 flasks. In all cases cells were thawed from frozen stocks, expanded through ≥1 passage using appropriate dilutions, counted and assessed for viability using a CASY cell counter (Omni Life Science, Bremen, Germany) prior to plating 25 ul/well at the densities indicated in Table 1 into 384-well plates (Corning). All cell lines were determined to be free of mycoplasma contamination by PCR assay performed at Idexx Radii (Columbia, Mo., USA) and misidentification ruled out by assessment of a panel of 48 Small Nucleotide Polymorphisms (SNPs) at Asuragen (Austin, Tex., USA) or in-house.
(§8) Stock solutions of compounds were prepared at a concentration of 10 mM in DMSO (Sigma) and stored at −20° C. Where necessary to afford a full dose-response curve, the stock solutions were pre-diluted in DMSO to 1′000-fold the desired start concentration (see Table 2). On the day after cell seeding, eight 2.5-fold serial dilutions of each compound were dispensed, either individually or in all possible permutations in a checkerboard fashion, directly into the cell assay plates using a non-contact 300D Digital Dispenser (ILCAN, Mannedorf, Switzerland) as outlined in FIG. 4. The final concentration of DMSO was 0.2% in all wells.
(§9) Effects of the single agents as well as their checkerboard combinations on cell viability were assessed after 2 days of incubation at 37° C./5% CO2 by quantification of cellular ATP levels using CellTiterGlo (Promega, Madison, Wis., USA) at 25 μL reagent/well and n=2 replicate plates per condition. Luminescence was quantified on a M1000 multipurpose platereader (ILCAN, Mannedorf, Switzerland). The number/viability of cells at time of compound addition was likewise assessed and used to assess the degree of the population doubling time of a particular cell line.
(§10) Single agent IC50s were calculated using standard four-parametric curve fitting. […] IC50 are defined as the compound concentration at which the CTG signal is reduced to 50% of that measured for the vehicle (DMSO) control.

[20] = test system: NU-DHL-1; experiment: CellTiterGlo viability, DLBCL cell line; details: single agent, 2 days; for IC50: read-out: Abs IC50
Experimental: as §6
Cell lines were cultured at 37° C. in a humidified atmosphere containing 5% CO2 and expanded in T-75 flasks. In all cases cells were thawed from frozen stocks, expanded through ≥1 passage using appropriate dilutions, counted and assessed for viability using a CASY cell counter (Omni Life Science, Bremen, Germany) prior to plating 25 ul/well at the densities indicated in Table 1 into 384-well plates (Corning).
as §8, §9, §10

[21] = test system: DOHH-2; experiment: CellTiterGlo viability, DLBCL cell line; details: single agent, 2 days; for IC50: read-out: Abs IC50
Experimental: as §6, §7, §8, §9
Single agent IC50s were calculated using standard four-parametric curve fitting. […] All calculations were performed using the Combination Analysis Module in-house software. IC50 are defined as the compound concentration at which the CTG signal is reduced to 50% of that measured for the vehicle (DMSO) control.

| Structure (SMILES) | Max Inh (Compound 3: Mean of Max Inh) [1] [%] | Max Inh (Compound 3: Mean of Max Inh) [2] [%] | Max Inh (Compound 3: Mean of Max Inh) [3] [%] | Max Inh (Compound 3: Mean of Max Inh) [4] [%] | Max Inh (Compound 3: Mean of Max Inh) [5] [%] | Max Inh (Compound 3: Mean of Max Inh) [6] [%] | Max Inh (Compound 3: Mean of Max Inh) [7] [%] | Max Inh (Compound 3: Mean of Max Inh) [8] [%] | Max Inh (Compound 3: Mean of Max Inh) [9] [%] | Max Inh (Compound 3: Mean of Max Inh) [10] [%] | Max Inh (Compound 3: Mean of Max Inh) [11] [%] | IC50 [12] [nM] | IC50 [14] [nM] | IC50 [16] [nM] | IC50 [18] [nM] | Max Inh [19] [%] | Max Inh [20] [%] | Max Inh [21] [%] | also measured |
| --- | --- | --- | --- | --- | --- | --- | --- | --- | --- | --- | --- | --- | --- | --- | --- | --- | --- | --- | --- |
| Cl.O=C(c1cc(-c2cc3c(cc2C(=O)N2Cc4ccccc4C[C@H]2CN2CCOCC2)OCO3)n2c1CCCC2)N(c1ccccc1)c1ccc(O)cc1 [Compound 1, HCl, N-(4-hydroxyphenyl)-3-{6-[((3S)-3-(4-morpholinylmethyl)-3,4-dihydro-2(1H)-isoquinolinyl)carbonyl]-1,3-benzodioxol-5-yl}-N-phenyl-5,6,7,8-tetrahydro-1-indolizine carboxamide hydrochloride] | 10 | 10 | 26 | 15 | 48.5 | 27 | 11 | 9 | 6 | 10 | 27 | 17000 | 209 | 19 | 95 | 96.9 | 102.1 | 101.9 | IC50 ([1]; Homo sapiens, 72 h): > 2000 nM; IC50 ([2]; Neuroblastoma cell, 72 h): > 2000 nM; IC50 ([3]; Neuroblastoma cell, 72 h): > 2000 nM; inhibition at 0.63 µM ([3]; Neuroblastoma cell, LAN-6 cells, each compound at 630 nM (FIG. 10, upper left panel), read-out: growth inhibition): 0%; IC50 ([4]; Homo sapiens, 48 h): > 3000 nM; IC50 ([5]; Neuroblastoma cell, 72 h): > 2000 nM; IC50 ([6]; 48 h): > 3000 nM; IC50 ([7]; Homo sapiens, 48 h): > 3000 nM; IC50 ([8]; Homo sapiens, 72 h): > 1000 nM; IC50 ([9]; Homo sapiens, 48 h): > 3000 nM; IC50 ([10]; Homo sapiens, 48 h): > 3000 nM; IC50 ([11]; Neuroblastoma cell, 72 h): > 2000 nM; IC50 ([13]; Homo sapiens): 20 nM; IC50 ([15]; Homo sapiens): 19 nM; IC50 ([17]; Homo sapiens): 25 nM; IC50 ([19]; Homo sapiens, 48 h): 860 nM; IC50 ([20]; Homo sapiens, 48 h): 51.5 nM; IC50 ([21]; Homo sapiens, 48 h): 156 nM |
| COc1ccccc1-c1nccc(COc2ccccc2C[C@@H](Oc2ncnc3sc(-c4ccc(F)cc4)c(-c4ccc(OCCN5CCN(C)CC5)c(Cl)c4C)c23)C(=O)O)n1 [Compound 3, (2R)-2-{[(5Sa)-5-{3-chloro-2-methyl-4-[2-(4-methylpiperazin-1-yl)ethoxy]phenyl}-6-(4-fluorophenyl)thieno[2,3-d]pyrimidin-4-yl]oxy}-3-(2-{[2-(2-methoxyphenyl)pyrimidin-4-yl]methoxy}phenyl)propanoic acid] | 2.5 | 13 | 17.5 | 40 | 0 | 99 | 99 | 84 | 33 | 24 | 27 | 6540 | 30 | 24 | 12 | 99.5 | 98.1 | 98.3 | IC50 [1]: > 2000 nM; IC50 [2]: > 2000 nM; IC50 [3]: > 2000 nM; growth inhibition ([3]; LAN-6 cells, each compound at 630 nM (FIG. 10, upper left panel)): 12%; IC50 [4]: > 3000 nM; IC50 [5]: > 2000 nM; IC50 [6]: 31 nM; IC50 [7]: 123 nM; IC50 [8]: 260 nM; IC50 [9]: > 3000 nM; IC50 [10]: > 3000 nM; IC50 [11]: > 2000 nM; IC50 [13]: 79 nM; IC50 [15]: 63 nM; IC50 [17]: 78 nM; IC50 [19]: 17.8 nM; IC50 [20]: 57.9 nM; IC50 [21]: 1.22 nM |
